Measured values reported in patent US20090068290A1, “BIFEPRUNOX DOSES FOR TREATING SCHIZOPHRENIA” (priority 2006, published 2009).

Columns and labels:
[1] = test system: adult subjects with schizophrenia; assay: Adverse events (TEAE, SAE, special interest, discontinuation, EPS-related TEAE), Clinical Study Three; conditions: for safety and tolerability: bifeprunox 20 mg and 30 mg, 6 weeks
Description: There were four treatment arms in this study, approximately 144 subjects per arm. […] After completing the Single-Blind Placebo Lead-in Period of at least three days, bifeprunox-treated subjects were titrated from 0.25 mg up to 20 mg/day or 30 mg/day according to a standardized titration scheme over a seven- or eight-day period, respectively. When the assigned dose was reached, subjects were maintained at that dose for the remainder of the six week treatment period. […] Subjects were hospitalized (if not already inpatients) after eligibility for study entry was verified, starting from the Screening Visit until at least 10 days after Baseline. Subjects could be hospitalized longer than 10 days if considered medically necessary by the Investigator. Rating scale assessments for efficacy and abnormal movement disorders were done weekly except for Week 5. Safety assessments were performed at Screening, during treatment and at the end of the study. Subject satisfaction with study medication was assessed at Week 6. Samples of whole blood were obtained at Weeks 2, 4, and 6 for determination of bifeprunox in plasma.
EPS were assessed using treatment-emergent adverse events such as akathisia, dyskinesia, parkinsoniam, etc. and/or formal rating scales such as SAS, BAS, and/or AIMS.

[2] = test system: adult subjects with schizophrenia; assay: PANSS total score, Clinical Study Two (6-week, risperidone-referenced); format: in vivo, human; conditions: LOCF; for Change from Baseline in PANSS Total Score, Mean (SD) / Change from Baseline in PANSS Total Score, Median / PANSS Total Score, Trt Effect (difference between bifeprunox and placebo): ITT; for PANSS Total Score, Trt Effect (difference between bifeprunox and placebo): ANCOVA
Description: Treatment started with a single-blind placebo lead-in period of at least three days, followed by titration from 0.25 mg up to 30 mg/day or 40 mg/day of bifeprunox for bifeprunox-treated subjects.
Rating scale assessments were performed weekly, except for week 5, to measure the change from baseline to endpoint of the PANSS total score. Other assessments included: PANSS positive symptom subscale score, PANSS negative symptom subscale score, PANSS general pschopathology subscale score, BPRS total score, BPRS psychosis score, the CGI-S score, the CGI-I score, responder rates based on the PANSS total score, and the Calgary Depression Scale for Schizophrenia (CDSS).
Subjects who completed this study had the option to continue in the long-term. […] After completing a Single-Blind placebo lead-in period of at least three days, bifeprunox-treated subjects were titrated from 0.25 mg up to 30 mg/day or 40 mg/day according to a standardized titration scheme over an eight-day period. When the assigned dose was reached, subjects were maintained at that dose for the remainder of the six week treatment period. […] Rating scale assessments for efficacy and abnormal movement disorders were done weekly except for Week 5. Safety assessments were performed at Screening, during treatment and at the end of the study. Subject satisfaction with study medication was assessed at Week 6. Samples of blood were obtained at Weeks 2, 4, and 6 for determination of bifeprunox in plasma. Blood samples were also obtained at Screening/Baseline, Week 3, and Week 6 for clinical laboratory assessments.
Diagnosis and Main Criteria for Inclusion: Male or female subjects 18-75 years of age with schizophrenia (per DSM-IV-TR criteria). Subjects had to have a total score on the PANSS between 70 and 120; at least two of four PANSS items (conceptual disorganization, hallucinatory behavior, suspiciousness, unusual thought content) had to have a score ≧4; and the score on the CGI-S had to be at least 4.

[3] = test system: adult subjects with schizophrenia; assay: CGI responder rate, Clinical Study One; format: in vivo, human
Description: (§1) There were five treatment groups in this study. […] Study medication was administered once daily. After Baseline measurements were performed, the titration phase was begun. Bifeprunox treated subjects were titrated up to 5 mg, 10 mg or 20 mg according to a standardized titration schedule (Day 1: 0.125 mg, Day 2: 0.25 mg, Day 3: 0.5 mg, Day 4: 1.0 mg, Day 5: 2.0 mg, Day 6: 5.0 mg, Day 7: 10.0 mg, Day 8: 20 mg). When the assigned dose was reached, subjects were maintained at that dose for the remainder of the six-week treatment period.
CLINICAL STUDY ONE: A CGI responder is defined as a subject who is categorized as “very much improved” or “much improved” on the CGI Improvement scale.

[4] = test system: adult subjects with schizophrenia; assay: PANSS responder rates, Clinical Study One; format: in vivo, human; conditions: for PANSS responder rate, 20% definition: Endpoint LOCF; for PANSS Responder at Endpoint (LOCF), 20% Definition / PANSS Responder at Endpoint (LOCF), 25% Definition / PANSS Responder at Endpoint (LOCF), 30% Definition / PANSS Responder at Endpoint (LOCF), 35% Definition: ITT
Description: as §1

[5] = test system: adult subjects with schizophrenia; assay: CGI responder rate, Clinical Study Three; format: in vivo, human; conditions: LOCF; for CGI Responder No, % / CGI Responder Yes, %: Week 6/Endpoint
Description: CLINICAL STUDY THREE: A CGI responder is defined as a subject who is categorized as “very much improved” or “much improved” on the CGI Improvement scale. […] No notable differences were observed between the placebo group and either of the two bifeprunox dose groups.

[6] = Bifeprunox 30 mg, Week 6/Endpoint
[7] = Bifeprunox 40 mg, Week 6/Endpoint

## O=c1[nH]c2cccc(N3CCN(Cc4cccc(-c5ccccc5)c4)CC3)c2o1 [Bifeprunox, 7-[4-([1,1′-biphenyl]-3-ylmethyl)-1-piperazinyl]-2(3H)-benzoxazolone]
[1]; BX 20 mg
  AKATHISIA, %: 3%
  CONVULSION, %: 1%
  DIZZINESS, %: 8%
  DYSKINESIA, %: 1%
  EXTRAPYRAMIDAL DISORDER, %: 3%
  HEADACHE, %: 19%
  LOSS OF CONSCIOUSNESS, %: 1 (<1%)
  MYALGIA, %: 1 (<1%)
  NECK PAIN, %: 1%
  NERVOUS SYSTEM DISORDERS, %: 38%
  PAIN IN EXTREMITY, %: 1 (<1%)
  SEDATION, %: 5%
  SINUS HEADACHE, %: 1 (<1%)
  SOMNOLENCE, %: 3%
  TARDIVE DYSKINESIA, %: 1 (<1%)
  TREMOR, %: 1%
[1]; BX 40 mg
  AKATHISIA, %: 3%
  CYST, %: 1 (<1%)
  DIZZINESS, %: 10%
  DYSKINESIA, %: 1%
  EXTRAPYRAMIDAL DISORDER, %: 1 (<1%)
  HEADACHE, %: 19%
  MUSCULOSKELETAL STIFFNESS, %: 1 (<1%)
  MYALGIA, %: 1%
  NEOPLASMS BENIGN, MALIGNANT AND UNSPECIFIED (INCL CYSTS AND POLYPS), %: 1 (<1%)
  NERVOUS SYSTEM DISORDERS, %: 37%
  NEUROLOGICAL SYMPTOM, %: 1 (<1%)
  PAIN IN JAW, %: 1 (<1%)
  PARAESTHESIA, %: < 1%
  SEDATION, %: 7%
  SOMNOLENCE, %: 3%
  SYNCOPE VASOVAGAL, %: 1%
  TREMOR, %: 3%
[1]; Bifeprunox 30 mg
  incidence of dizziness (TEAE of special interest): 10%
  orthostatic hypotension (special interest TEAE): three subjects
  subjects with at least one AE that led to study termination: 7%
  subjects with at least one SAE: 8%
  subjects with at least one TEAE: 77%
  subjects with at least one special interest TEAE: 13%
  syncope vasovagal (special interest TEAE): two subjects
[1]; bifeprunox 20 mg
  incidence of dizziness (TEAE of special interest): 8%
  subjects with at least one AE that led to study termination: 8%
  subjects with at least one SAE: 10%
  subjects with at least one TEAE: 82%
  subjects with at least one special interest TEAE: 11%
[1]
  safety and tolerability: well tolerated at both dose levels
[1]; listed as bifeprunox
  safety and tolerability: safe and well tolerated
[1]; bifeprunox groups (20, 30 mg), each
  subjects who discontinued study medication due to an AE: 8%
[2]; Bifeprunox 30 mg, Week 1
  Change from Baseline in PANSS Total Score, Mean (SD): −6.6 (11.8)
  Change from Baseline in PANSS Total Score, Median: −5
[2]; Bifeprunox 30 mg, Week 2
  Change from Baseline in PANSS Total Score, Mean (SD): −11.6 (15.5)
  Change from Baseline in PANSS Total Score, Median: −10
[2]; Bifeprunox 30 mg, Week 3
  Change from Baseline in PANSS Total Score, Mean (SD): −13.3 (17.8)
  Change from Baseline in PANSS Total Score, Median: −10
[2]; Bifeprunox 30 mg, Week 4
  Change from Baseline in PANSS Total Score, Mean (SD): −13.6 (18.9)
  Change from Baseline in PANSS Total Score, Median: −10
[2]; [6]
  Change from Baseline in PANSS Total Score, Mean (SD): −13.5 (20.1)
  Change from Baseline in PANSS Total Score, Median: −10
  PANSS Total Score, Trt Effect (difference between bifeprunox and placebo): −5.9
[2]; Bifeprunox 40 mg, Week 1
  Change from Baseline in PANSS Total Score, Mean (SD): −6.7 (11.5)
  Change from Baseline in PANSS Total Score, Median: −6
[2]; Bifeprunox 40 mg, Week 2
  Change from Baseline in PANSS Total Score, Mean (SD): −8.9 (15.6)
  Change from Baseline in PANSS Total Score, Median: −8
[2]; Bifeprunox 40 mg, Week 3
  Change from Baseline in PANSS Total Score, Mean (SD): −10.0 (17.8)
  Change from Baseline in PANSS Total Score, Median: −10
[2]; Bifeprunox 40 mg, Week 4
  Change from Baseline in PANSS Total Score, Mean (SD): −9.2 (18.8)
  Change from Baseline in PANSS Total Score, Median: −7
[2]; [7]
  Change from Baseline in PANSS Total Score, Mean (SD): −10.3 (20.5)
  Change from Baseline in PANSS Total Score, Median: −7
  PANSS Total Score, Trt Effect (difference between bifeprunox and placebo): −3.2
[2]; bifeprunox 30 mg (b57 prints 20 mg)
  difference from placebo, change from Baseline to Endpoint in PANSS total score: statistically significant difference from placebo
[2]; bifeprunox 30 mg
  greater improvement from Baseline to Endpoint in PANSS total score compared with placebo: 5.9 point
[2]; bifeprunox 30 mg, week 2
  PANSS Total Score, treatment effect versus placebo: −5.6
[2]; bifeprunox 30 mg, week 4
  PANSS Total Score, treatment effect versus placebo: −6.3
[2]; bifeprunox 40 mg
  difference from placebo, change from Baseline to Endpoint in PANSS total score: not significantly different from the placebo group
[3]; 5 mg
  CGI Responder at Endpoint (LOCF), %: 33%
[3]; 10 mg
  CGI Responder at Endpoint (LOCF), %: 19%
[3]; 20 mg
  CGI Responder at Endpoint (LOCF), %: 25%
[4]; Bifeprunox 5 mg
  PANSS responder rate, 20% definition: 28%
  PANSS Responder at Endpoint (LOCF), 20% Definition: 31 (28) n (%)
  PANSS Responder at Endpoint (LOCF), 25% Definition: 25 (23) n (%)
  PANSS Responder at Endpoint (LOCF), 30% Definition: 16 (15) n (%)
  PANSS Responder at Endpoint (LOCF), 35% Definition: 11 (10) n (%)
[4]; Bifeprunox 10 mg
  PANSS responder rate, 20% definition: 24%
  PANSS Responder at Endpoint (LOCF), 20% Definition: 28 (24) n (%)
  PANSS Responder at Endpoint (LOCF), 25% Definition: 22 (19) n (%)
  PANSS Responder at Endpoint (LOCF), 30% Definition: 12 (10) n (%)
  PANSS Responder at Endpoint (LOCF), 35% Definition: 7 (6) n (%)
[4]; Bifeprunox 20 mg
  PANSS Responder at Endpoint (LOCF), 20% Definition: 38 (34) n (%)
  PANSS Responder at Endpoint (LOCF), 25% Definition: 27 (24) n (%)
  PANSS Responder at Endpoint (LOCF), 30% Definition: 18 (16) n (%)
  PANSS Responder at Endpoint (LOCF), 35% Definition: 14 (13) n (%)
[4]; bifeprunox 20 mg
  PANSS responder rate, 20% definition: 34%
[5]; 20 mg
  CGI Responder No, %: 62%
  CGI Responder Yes, %: 38%
[5]; 30 mg
  CGI Responder No, %: 66%
  CGI Responder Yes, %: 34%
[5]; bifeprunox 20 mg
  CGI-I responder rate (subjects much or very much improved) at Endpoint: 38%
[5]; bifeprunox 30 mg
  CGI-I responder rate (subjects much or very much improved) at Endpoint: 34%
